# Assay results as given in patent publication US20070207112A1, “Anti-acne composition” (GRANT INDUSTRIES, INC., priority 2006, published 2007).
# Residues, ends and D or L forms follow the SMILES beside them.
# Tests used:
# P. acnes [1] = conditions: cited from earlier work
# P. acnes [2] = type: cell-based; conditions: salicylate 0.08% to 5%
# Text: In-Vitro testing for the synergetic inhibitory effects of Compound A and salicylic acid on the growth of P. acnes.
# The objective of this experiment was to establish the minimal inhibitory concentration (MIC) of the peptide (Compound A) towards the bacterium P. acnes, in the presence of a range of concentrations of sodium salt of salicylic acid. MIC is defined as the lowest concentration of an active material resulting in lack of microbial growth. P. acnes (BD, cat. #237038, batch #6152097) was inoculated at 3 different dilutions and grown on blood agar plates for one week in anaerobic condition at 37 deg. C. Bacteria were then inoculated in thioglycollate broth in a 96 well plate, at the density equal to 0.5 McFarland standard in the presence of peptide (Compound A) concentrations ranging from 0.25 ug/ml to 32 ug/ml and salicylate concentrations ranging from 0.08% to 5% (checker method). MIC was determined visually and confirmed by spectrophotometry at 490 nm and 590 nm on the BioRad 3550-UV microplate reader.
structure (smiles),measurement,setting,value
"O=C(O)c1ccccc1O [salicylic acid, reference compound]",Antibacterial activity against P. acnes,"P. acnes [1]; U.S. Pat. No. 4,520,133",does not posses any antibacterial activity against P. acnes
"CC(C)C[C@H](NC(=O)[C@H](C)NC(=O)[C@H](CCCCN)NC(=O)[C@H](CC(C)C)NC(=O)[C@H](C)NC(=O)[C@H](CCCCN)NC(=O)[C@H](CC(C)C)NC(=O)[C@H](CC(C)C)NC(=O)[C@H](C)NC(=O)[C@H](CCCCN)NC(=O)[C@H](CC(C)C)NC(=O)[C@H](C)NC(=O)[C@H](CCCCN)NC(=O)[C@H](C)NC(=O)[C@@H](N)Cc1ccccc1)C(N)=O [Compound A, FAKALKALLKALKAL-NH2] (H-FAKALKALLKALKAL-NH2; N-terminus assumed)",MIC against P. acnes (in words),"P. acnes [1]; in-vitro, reported in earlier filings",low in-vitro minimum inhibitory concentration (MIC) against P. acnes
same,Effect of added sodium salicylate on antimicrobial activity of the peptide,P. acnes [2],strongly enhance its antimicrobial activity
